26 molecules from ChEMBL document CHEMBL3351934, “Monocyclic 4-amino-6-(phenylamino)-1,3,5-triazines as inhibitors of human DNA topoisomerase IIα” (Bioorg Med Chem Lett, 2014) can be followed below.

Active and inactive are the calls of the source. No cut-off for these calls is given here. A value given as a limit tells only on which side of the number the result lay.

The first data set deals with DNA topoisomerase 2-alpha (Homo sapiens, UniProt P11388). The data set can be described thus: Inhibition of human DNA topoisomerase 2alpha using plasmid pNO1 substrate incubated at 37 degC for 30 mins by fluorimetry.
Chain of DNA topoisomerase 2-alpha (P11388 whole entry): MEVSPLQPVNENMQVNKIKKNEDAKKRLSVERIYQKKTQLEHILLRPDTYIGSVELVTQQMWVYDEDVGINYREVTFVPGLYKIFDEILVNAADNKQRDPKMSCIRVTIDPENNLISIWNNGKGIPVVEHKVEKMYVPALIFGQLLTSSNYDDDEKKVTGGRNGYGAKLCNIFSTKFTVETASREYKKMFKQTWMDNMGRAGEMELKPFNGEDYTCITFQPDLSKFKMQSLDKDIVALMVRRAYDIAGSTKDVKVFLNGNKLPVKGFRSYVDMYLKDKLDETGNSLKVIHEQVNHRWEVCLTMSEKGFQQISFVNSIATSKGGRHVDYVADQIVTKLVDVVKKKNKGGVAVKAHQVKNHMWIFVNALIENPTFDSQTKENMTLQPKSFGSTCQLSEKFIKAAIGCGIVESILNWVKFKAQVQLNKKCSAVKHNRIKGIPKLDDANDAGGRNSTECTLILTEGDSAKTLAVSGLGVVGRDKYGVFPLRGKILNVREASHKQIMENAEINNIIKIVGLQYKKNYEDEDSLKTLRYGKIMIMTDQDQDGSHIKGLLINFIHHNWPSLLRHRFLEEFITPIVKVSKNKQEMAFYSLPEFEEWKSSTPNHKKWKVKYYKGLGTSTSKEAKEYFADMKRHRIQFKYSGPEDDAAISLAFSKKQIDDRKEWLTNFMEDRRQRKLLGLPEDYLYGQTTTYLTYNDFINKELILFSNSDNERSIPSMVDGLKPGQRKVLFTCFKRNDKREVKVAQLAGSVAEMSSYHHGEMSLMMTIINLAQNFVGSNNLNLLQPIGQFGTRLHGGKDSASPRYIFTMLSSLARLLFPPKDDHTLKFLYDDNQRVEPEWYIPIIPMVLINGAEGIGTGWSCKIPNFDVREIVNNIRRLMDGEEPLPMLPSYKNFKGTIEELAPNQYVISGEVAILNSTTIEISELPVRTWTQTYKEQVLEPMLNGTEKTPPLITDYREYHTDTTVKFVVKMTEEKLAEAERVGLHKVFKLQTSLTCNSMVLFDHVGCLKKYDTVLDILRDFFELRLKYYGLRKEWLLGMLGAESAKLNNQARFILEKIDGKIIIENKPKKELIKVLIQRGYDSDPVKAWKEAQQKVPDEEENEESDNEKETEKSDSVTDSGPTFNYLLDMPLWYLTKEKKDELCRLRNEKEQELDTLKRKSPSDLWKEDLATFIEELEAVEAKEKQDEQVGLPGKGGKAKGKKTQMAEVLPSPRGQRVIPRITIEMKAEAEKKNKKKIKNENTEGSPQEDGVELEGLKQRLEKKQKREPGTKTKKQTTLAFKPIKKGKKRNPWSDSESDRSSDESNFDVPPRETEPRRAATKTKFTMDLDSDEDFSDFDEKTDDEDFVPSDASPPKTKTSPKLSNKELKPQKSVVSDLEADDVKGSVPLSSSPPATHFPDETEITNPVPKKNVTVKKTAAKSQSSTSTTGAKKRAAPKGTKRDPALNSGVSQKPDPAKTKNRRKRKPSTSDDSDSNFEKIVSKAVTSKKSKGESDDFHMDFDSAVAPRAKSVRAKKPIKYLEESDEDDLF
Conditions: not given
A word on the IC50: it is the point on the concentration scale where inhibition reaches its midpoint. For the molecule `COc1cccc(C(=O)NCc2n[nH]c(=S)n2-c2ccccc2Cl)c1`, the IC50 is greater than 1 mM.

The molecule `Cc1cc(O)nc(NCCCn2ccnc2)n1` displayed an IC50 greater than 1 mM.

`Nc1nc(SCCc2ccccc2)c2nc[nH]c2n1`: the IC50 amounted to 0.085 mM. In other words, the double-digit micromolar range.

As for `COc1ccc(CNc2ncccc2C(N)=O)cc1OC`, the IC50 was greater than 1 mM.

Take `Cc1cc(O)nc(N/N=C\c2ccncc2)n1`: the half-maximal inhibitory concentration (IC50) was greater than 1 mM.

Turning to `O=C(NCc1n[nH]c(=S)n1-c1ccccc1)c1ccccc1C(F)(F)F`, the IC50 is greater than 1 mM.

`COc1ccc(Nc2nc(N)nc(CSC(=S)N3CCCCC3)n2)cc1` had an IC50 greater than 1 mM.

`Nc1nc(CSc2nnc(C3CC3)o2)nc(Nc2ccc(F)cc2)n1`: the IC50 was greater than 1 mM.

In the case of `Cc1cc(CNc2nc3c(cc2C(N)=O)CCC3)ccn1`, the IC50 is greater than 1 mM.

For the molecule `Cc1cc(CNc2ncccc2C(N)=O)ccn1`, the IC50 was greater than 1 mM.

As for `O=C(NCc1n[nH]c(=S)n1-c1ccc(F)cc1)c1ccccc1F`, the IC50 was greater than 1 mM.

Take `Nc1nc(CSC(=S)N2CCOCC2)nc(Nc2ccc(F)cc2)n1`: the IC50 was 0.139 mM.

For `CN(C(=S)SCc1nc(N)nc(Nc2ccc(F)cc2)n1)C1CCCCC1`, the half-inhibitory concentration (IC50) is greater than 1 mM.

Consider `Nc1nc(CSc2nnn[nH]2)nc(Nc2ccc(F)cc2)n1`, for which half-maximal inhibition (IC50) was put at 0.337 mM.

As to `Nc1nc(CSc2nnnn2C2CCCC2)nc(Nc2ccc(F)cc2)n1`, the half-maximal inhibitory concentration (IC50) was greater than 1 mM.

`CN1CCN(C(=S)SCc2nc(N)nc(Nc3ccc(F)cc3)n2)CC1` yielded an IC50 greater than 1 mM.

Turning to `C[C@H](Sc1nc(N)nc(N)n1)C(=O)N1CCOCC1`, the concentration for half-maximal inhibition (IC50) is greater than 1 mM.

Consider `Cn1nnnc1SCc1nc(N)nc(Nc2ccc(F)cc2)n1`, for which the IC50 was greater than 1 mM.

`Nc1nc(CSC2CCCC2)nc(Nc2ccc(F)cc2)n1` registered an IC50 greater than 1 mM.

Molecule `Cc1cc(CNc2nc(C)ccc2C(N)=O)ccn1` gave an IC50 greater than 1 mM.

For `C[C@H](Sc1nc(N)cc(O)n1)C(=O)N1CCOCC1`, the IC50 was greater than 1 mM.

Turning to `CCCn1ccnc1SCc1nc(N)nc(Nc2ccc(F)cc2)n1`, the IC50 is greater than 1 mM.

The molecule `Cc1cc(O)nc(N/N=C\c2cccnc2)n1` gave an IC50 greater than 1 mM.

With `Nc1nc(N)nc(CSc2nnc(-c3cccnc3)o2)n1`, the half-inhibitory concentration (IC50) is greater than 1 mM.

The molecule `COc1ccc(Nc2nc(N)nc(CSC(=S)N3CCOCC3)n2)cc1` showed an IC50 of 0.229 mM.

Take `COc1cccc(C(=O)NCc2nnc(S)n2-c2ccc(Cl)c(Cl)c2)c1`: the IC50 is greater than 1 mM.

For another data set, the system named is HepG2. Description: Cytotoxic activity against human HepG2 cells assessed as reduction in cell viability at 200 uM after 24 hrs by MTT assay. In kind it is functional. As to conditions: HepG2, 24 h. In general terms: Tetrazolium dyes change colour on reduction, which living cells bring about.
A word on the inhibition: it is the change of the read-out against control, counted positive when it falls. In the case of `COc1ccc(Nc2nc(N)nc(CSC(=S)N3CCOCC3)n2)cc1`, the inhibition at 200 µM was determined as 90%.

Another data set deals with HepG2. Description: Cytotoxic activity against human HepG2 cells assessed as reduction in cell viability at 50 to 100 uM after 24 hrs by MTT assay. In kind it is functional, cell-based.
Conditions: not given
As to `COc1ccc(Nc2nc(N)nc(CSC(=S)N3CCOCC3)n2)cc1`, the inhibition result is “Active”.

A further data set concerns HepG2. The data set can be described thus: Cytotoxic activity against human HepG2 cells assessed as reduction in cell viability at 6.25 to 25 after 24 hrs by MTT assay. In kind it is functional, cell-based.
Conditions: not given
Regarding `COc1ccc(Nc2nc(N)nc(CSC(=S)N3CCOCC3)n2)cc1`, the inhibition entry was “inactive”.

The test system of another data set is HepG2. Description: Cytotoxic activity against human HepG2 cells assessed as reduction in cell viability after 24 hrs by MTT assay. The settings on record: HepG2, 24 h.
One may read the EC50 as the midpoint of the concentration-response curve. For the molecule `COc1ccc(Nc2nc(N)nc(CSC(=S)N3CCOCC3)n2)cc1`, the EC50 worked out at 20.5 µM.

For the next data set, the system named is HUVEC. The data set can be described thus: Cytotoxic activity against HUVEC assessed as reduction in cell viability after 24 hrs by MTT assay. The settings on record: Homo sapiens, HUVEC. In kind it is cell-based, Homo sapiens.
With `COc1ccc(Nc2nc(N)nc(CSC(=S)N3CCOCC3)n2)cc1`, the EC50 stood at 122 µM.

The same data set, now with this note: human, huvec.
For the molecule `COc1ccc(Nc2nc(N)nc(CSC(=S)N3CCOCC3)n2)cc1`, the “inhibition (INH)” value is on record as “Dose-dependent effect”.

For the next data set, the system named is MCF7. Description: Cytotoxic activity against human MCF7 cells assessed as reduction in cell viability at 200 uM after 24 hrs by MTT assay. The format is functional, cell-based.
Conditions: not given
On to `COc1ccc(Nc2nc(N)nc(CSC(=S)N3CCOCC3)n2)cc1`, for which the inhibition entry was “Active”.

For another data set, the system named is MCF7. Description: Cytotoxic activity against human MCF7 cells assessed as reduction in cell viability after 24 hrs by MTT assay. As to conditions: MCF7, 24 h.
Turning to `COc1ccc(Nc2nc(N)nc(CSC(=S)N3CCOCC3)n2)cc1`, the EC50 was 129 µM.

The test system of a further data set is MCF7. The data set can be described thus: Cytotoxic activity against human MCF7 cells assessed as reduction in cell viability at 6.25 to 25 after 24 hrs by MTT assay. In kind it is functional, cell-based.
Conditions: not given
For the molecule `COc1ccc(Nc2nc(N)nc(CSC(=S)N3CCOCC3)n2)cc1`, the inhibition result is “inactive”.

Tested on in a further data set: not listed separately
The data set can be described thus: Cytotoxic activity against HUVEC assessed as reduction in cell viability at 200 uM after 24 hrs by MTT assay. In kind it is cell-based. As to conditions: human, HUVEC cells; read-out: INH.
Regarding `COc1ccc(Nc2nc(N)nc(CSC(=S)N3CCOCC3)n2)cc1`, the cytotoxicity at 24 h, 200 µM was 90%.
